Common to all, as to assay: NCI-60 cell line screen, 48 h
Test [1] relates to OVCAR-4 ovarian.
For test [2], the system named is EKVX NSCLC.
For test [3], the system named is SK-MEL-5 melanoma.
For test [4], the system named is A549 NSCLC.
Test [5] concerns LOX IMVI melanoma.
The subject of test [6] is RXF 393 renal.
The test system of test [7] is DU-145 prostate.
Test [8] has as its system RPMI-8226 leukemia.
Test [9] has as its system HCT-15 colon.
In test [10] the test system is IGROV1 ovarian.
For test [11], the system named is ACHN renal.

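These data come from cells grown in 96-well plates and exposed to compound for 48 hours at five concentrations. Here, GI50 denotes the concentration required for 50% inhibition of growth. TGI: concentration producing complete growth inhibition.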 Where a SMILES comes first, the peptide text is derived from it. The star is where a group is joined. Boc = CC(C)(C)OC(=O)*; OBn = c1ccc(CO*)cc1

In the case of `OCC(CCc1ccccc1I)C1=CCC2(CC1)OCCO2` (centres undefined), the TGI in test [1] is 69.9 µM; in test [2], 58.4 µM; in test [3], 27.8 µM; in test [4] it was 62.4 µM; in test [5], 29.1 µM; in test [6], 34.9 µM. Also, the TGI is 48 µM in test [7]; above 100 µM in [8]; 54.7 µM in test [9]; 39.7 µM in [10]; above 100 µM in [11].

Take `CC(=O)NC1=C(NCCCl)C(=O)c2ccccc2C1=O`: the TGI in [1] was above 100 µM; in test [2], above 100 µM; in test [3], 30.5 µM; in test [4] it was above 100 µM; in test [6], 69.8 µM; in test [7], above 100 µM. Besides, the TGI in test [8], in test [9], in test [10] and in [11] was above 100 µM throughout.

Turning to `O=C1C=C2CCC[C@H]3OC(=O)C[C@@]23CC1`, the TGI in [1], in test [2], in test [3], in [4], in [5] and in test [6] was above 100 µM each time. Also, the TGI in test [7], in [8], in [9], in test [10] and in test [11] was above 100 µM in each case.

Take `Cc1ccnc2nc(N)ccc12`: the TGI in test [1], in [2], in [3], in test [4], in test [6] and in test [7] was above 100 µM throughout. Besides, the TGI in [8], in test [9], in [10] and in test [11] was above 100 µM throughout.

As to `COC(=O)c1c(CC(Cc2ccc3c(c2)CCCC3)C(=O)OC)ccc2c1CCCC2` (centres undefined), the TGI is 45.1 µM in test [1]; 77.1 µM in test [2]; above 100 µM in test [3]; above 100 µM in [4]; above 100 µM in test [5]; above 100 µM in test [6]. Also, the TGI in test [7], in [8], in [9], in [10] and in test [11] was above 100 µM throughout.

As for `O=C1CC(C(OCc2ccccc2)C(OCc2ccccc2)C(COCc2ccccc2)OCc2ccccc2)CC(=O)N1` (centres undefined), the TGI in [1], in test [2], in test [3], in test [4], in test [5] and in [6] was above 100 µM each time. In addition, the TGI in test [7], in test [8], in test [9], in [10] and in [11] was above 100 µM in each case.

Consider `Cc1cccc2nc3c(=O)[nH]c(=O)nc-3n(C)c12`, for which the TGI in test [1], in test [2], in [3], in test [4], in [5] and in [6] was above 100 µM in each case. Moreover, the TGI is above 100 µM in test [7]; 95.4 µM in test [8]; above 100 µM in test [9]; above 100 µM in test [10]; above 100 µM in test [11].

Regarding `NC(=O)c1cc(N(CCO)CCO)c([N+](=O)[O-])cc1[N+](=O)[O-]`, the TGI in test [1], in test [2], in test [3], in test [4], in test [5] and in [6] was above 100 µM throughout. For the same compound, the TGI in [7], in test [8], in test [9], in [10] and in [11] was above 100 µM throughout.

On to `CC(C)CC(NC(=O)OC(C)(C)C)C(=O)NC(CC(=O)OCc1ccccc1)C(=O)OCc1ccccc1` (stereo not drawn) (Boc-Leu-Asp(OBn)-OBn; configuration not given here), for which the TGI in test [2] is above 100 µM; in test [3], 57.3 µM; in test [4] it was above 100 µM; in test [5], 49.7 µM; in test [6], 90.5 µM; in [7] it was above 100 µM. Moreover, in [8], the TGI worked out at 97.3 µM.

For `Cc1ccc(-c2nnc(CCCCCCCCc3nnc(-c4ccc(C)cc4O)n3N)n2N)c(O)c1`, the TGI in test [1], in test [2], in [4], in test [5], in [7] and in [8] was above 100 µM in each case. In addition, the TGI in [9], in test [10] and in test [11] was above 100 µM throughout.

Turning to `Nc1cccc(S(=O)(=O)Nc2nnc(S(N)(=O)=O)s2)c1`, the TGI in test [1], in [2], in test [3], in test [4], in [5] and in test [6] was above 100 µM in each case. The TGI in test [7], in test [8], in test [9], in [10] and in test [11] was above 100 µM throughout.

With `CC(=O)OC1C2CCC3C(C)(O)C4CC(O)C(C)(C)C4(O)C(O)CC13CC2(C)O` (centres undefined), the TGI in [1], in test [2], in test [3], in test [4], in test [5] and in [7] was above 100 µM in each case. The TGI in test [8], in test [9], in test [10] and in test [11] was above 100 µM each time.

For the compound `CCOC(=O)NNC(=O)NCc1ccccc1CNC(=O)NNC(=O)OCC`, the TGI in [1], in test [2], in test [3], in [4], in [5] and in [6] was above 100 µM throughout. The TGI in test [7], in [8], in test [9] and in [10] was above 100 µM each time.

As to `O=C1CC(C(CC(=O)c2ccccc2)c2ccccc2)C(=O)c2ccccc2N1` (centres undefined), the TGI in test [2], in [3], in [4], in test [5], in [7] and in [8] was above 100 µM throughout. For the same compound, the TGI was 94.9 µM in [9], above 100 µM in test [10] and above 100 µM in test [11].

With `CCN(CC)CCCNC(=O)c1cc2cc(NC(=O)c3cc4cc([N+](=O)[O-])ccc4[nH]3)ccc2[nH]1`, the TGI in test [1], in test [2], in test [3], in test [4], in test [6] and in test [7] was above 100 µM each time. Moreover, the TGI in [8], in test [9], in test [10] and in test [11] was above 100 µM in each case.

As to `CC(=O)OC12c3ccccc3C(c3ccccc31)C1C(=O)N(c3ccccn3)C(=O)C12` (centres undefined), the TGI in [1], in test [2], in [3], in test [4], in test [5] and in [6] was above 100 µM throughout. For the same compound, the TGI in test [7], in test [8], in test [9] and in test [10] was above 100 µM throughout.

As to `Cn1c([C@H](C#N)C(=O)c2cc(O)ccc2[N+](=O)[O-])nc2ccccc21`, the TGI in [1], in test [2], in test [3], in test [4], in test [5] and in test [7] was above 100 µM in each case. Moreover, the TGI in test [8], in test [9], in test [10] and in [11] was above 100 µM throughout.

For `O=C(Sc1c(-c2ccccc2)c(=O)n(-c2ccccc2)c(=S)n1-c1ccccc1)c1cccs1`, the TGI in [1] is above 100 µM; in [2], above 100 µM; in test [3] it was 95.1 µM; in test [4], above 100 µM; in test [5] it was 61.2 µM; in [7], above 100 µM. For the same compound, the TGI in [8], in test [9], in test [10] and in test [11] was above 100 µM in each case.

Turning to `C=C(C)C1CC/C(C)=C/CC[C@]2(C)O[C@@H]2CCC2=CC1OC2=O` (some centres undefined), the GI50 in test [1] was above 100 µM; in test [3] it was 78.8 µM; in [4], 23.4 µM; in test [5] it was 15.1 µM; in test [7], 18.4 µM; in test [8], 10.5 µM. The GI50 in test [9] was 42.3 µM; in test [10], 50.4 µM. Also, the TGI in test [1] is above 100 µM; in test [3], above 100 µM; in [4], above 100 µM; in test [5], 48.2 µM; in [7], above 100 µM; in test [8] it was 22.2 µM. Besides, the TGI in test [9] and in [10] was above 100 µM in each case.

On to `Cc1c(OCc2ccccc2)c(=O)ccn1CCc1c[nH]c2ccccc12`, for which the TGI in test [2] is above 100 µM; in test [3], 35.3 µM; in [4], above 100 µM; in test [5], above 100 µM; in test [7], above 100 µM; in test [8], 59.3 µM. The TGI in test [9], in test [10] and in test [11] was above 100 µM each time.

As to `CCCC1C(=O)Nc2cccc3ncn(c23)C1=O` (centres undefined), the TGI in test [1], in test [2], in test [3], in test [4], in test [6] and in [7] was above 100 µM in each case. The TGI in [8], in test [9], in test [10] and in test [11] was above 100 µM each time.

For `CN(C)c1ccc(/C=C/C(=O)N[C@@H]2C(=O)N3[C@@H]2SC(C)(C)[C@@H]3C(=O)O)cc1`, the TGI in test [1], in test [2], in test [3], in test [4], in test [5] and in test [6] was above 100 µM each time. Also, the TGI in [7], in test [8], in [9] and in test [11] was above 100 µM in each case.

Take `COC(=O)C1=C(O)C(C(=O)OC)[C@]2(O)[C@@H](C(=O)OC)[C@H]1C[C@@H](c1ccccc1)[C@@H]2C(=O)OC` (some centres undefined): the TGI in [2] is 53.6 µM; in test [5], 39.3 µM; in [6], 19.9 µM; in test [7], 27 µM; in [8] it was 31.7 µM; in test [9], 26.9 µM. This compound also displayed a TGI in test [11] of 55.7 µM.

Consider `COC(=O)c1c(C)cccc1C1CN=NC12Cc1ccc(C)c(C)c1C2=O` (centres undefined), for which the TGI was above 100 µM in test [1]; 82.5 µM in [2]; above 100 µM in [4]; above 100 µM in [5]; above 100 µM in test [6]; above 100 µM in test [7]. Besides, the TGI in [8], in test [9], in test [10] and in test [11] was above 100 µM each time.

In the case of `Nc1ccc(Nc2cc(=O)[nH]c(=O)[nH]2)cc1`, the TGI in test [1], in test [2], in test [3], in test [4], in test [5] and in test [7] was above 100 µM throughout. In addition, the TGI in [8], in test [9], in [10] and in [11] was above 100 µM each time.

Turning to `CCOc1ccc(N=NC2C(=O)N(C(=O)CC(=O)Nc3ccccc3)N=C2C)cc1` (centres undefined), the TGI in test [1], in test [2], in test [3], in test [4], in test [5] and in [6] was above 100 µM throughout. For the same compound, the TGI in test [7], in test [9], in test [10] and in test [11] was above 100 µM in each case.

The values are drawn from PubChem BioAssay (NCI).
